Assay results: US10766902B2, “Wee-1 inhibiting pyrazolopyrimidinone compounds” (ALMAC DISCOVERY LIMITED, priority 2016, dated 2020)
Like-named read-outs stand apart in the source and are kept apart here.

Assays:
Wee-1 kinase = Wee-1 kinase (Homo sapiens (Human), UniProt P30291); test: Measurement of Wee-1 kinase activity (ADP-Glo luminescence); assay type: biochemical
In short: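 Activated Wee-1 preincubated 30 min at RT with compound in Tris/MgCl2 buffer with BSA and DTT, then reacted 1 h at RT with poly(Lys,Tyr 4:1) (2.0 μg/mL) and 30 μM ATP as added aliquot. ADP formed measured by ADP-Glo luminescence; IC50 by non-linear regression of % inhibition.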

A427 cells = test: Cell viability (CellTiter-Glo), A427; assay type: cell-based; details: Homo sapiens, A-427; cell viability after 72 hours
Method: All cell lines (HT29, A427, A498, SKLU-1) were obtained from the American Type Culture Collection (ATCC), maintained in the recommended media supplemented with 10% (v/v) FBS, 1% (v/v) Penicillin/streptomycin and kept at 37° C. in a humidified atmosphere with 5% CO2. Cells were seeded in 96 wp format typically at a seeding density of 3500-5000 cells/well and treated after 24 hours with increasing concentration of compound from 0 to 100 μM in ½ log unit increments. Cell viability was assessed after 72 hours (HT29, A427) or after 6 days (SKLU-1, A498) by CellTiter-Glo® as recommended by the manufacturer's instructions (Promega). Analysis and EC50 values were derived using GraphPadPrism.

panel of 50 kinases = test: Invitrogen SelectScreen Kinase Profiling Service, selectivity over the panel; assay type: biochemical; details: compared with compounds of the prior art
Source text: (§1) Table 4 below highlights the selectivity of a representative compound of the invention, Example 5, against a panel of 50 kinases (assessed using the Invitrogen SelectScreen® Kinase Profiling Service).

ABL1 = ABL1 (Homo sapiens (Human), UniProt P00519); test: SelectScreen Kinase Profiling: ABL1; assay type: biochemical; details: tested at 300-350 nM
Source text: as §1

AMPK A1/B1/G1 = AMPK A1/B1/G1 (Homo sapiens (Human), UniProt Q13131); test: SelectScreen Kinase Profiling: AMPK A1/B1/G1; assay type: biochemical; details: tested at 300-350 nM
Source text: as §1

AURKA (Aurora A) = AURKA (Aurora A) (Homo sapiens (Human), UniProt O14965); test: SelectScreen Kinase Profiling: AURKA (Aurora A); assay type: biochemical; details: tested at 300-350 nM
Source text: as §1

CHEK1 (CHK1) = CHEK1 (CHK1) (Homo sapiens (Human), UniProt O14757); test: SelectScreen Kinase Profiling: CHEK1 (CHK1); assay type: biochemical; details: tested at 300-350 nM
Source text: as §1

CSNK2A1 (CK2 alpha 1) = CSNK2A1 (CK2 alpha 1) (Homo sapiens (Human), UniProt P68400); test: SelectScreen Kinase Profiling: CSNK2A1 (CK2 alpha 1); assay type: biochemical; details: tested at 300-350 nM
Source text: as §1

EGFR (ErbB1) = EGFR (ErbB1) (Homo sapiens (Human), UniProt P00533); test: SelectScreen Kinase Profiling: EGFR (ErbB1); assay type: biochemical; details: tested at 300-350 nM
Source text: as §1

EPHA2 = EPHA2 (Homo sapiens (Human), UniProt P29317); test: SelectScreen Kinase Profiling: EPHA2; assay type: biochemical; details: tested at 300-350 nM
Source text: as §1

FGFR1 = FGFR1 (Homo sapiens (Human), UniProt P11362); test: SelectScreen Kinase Profiling: FGFR1; assay type: biochemical; details: tested at 300-350 nM
Source text: as §1

GSK3B (GSK3 beta) = GSK3B (GSK3 beta) (Homo sapiens (Human), UniProt P49841); test: SelectScreen Kinase Profiling: GSK3B (GSK3 beta); assay type: biochemical; details: tested at 300-350 nM
Source text: as §1

IRAK4 = IRAK4 (Homo sapiens (Human), UniProt Q9NWZ3); test: SelectScreen Kinase Profiling: IRAK4; assay type: biochemical; details: tested at 300-350 nM
Source text: as §1

KIT = KIT (Homo sapiens (Human), UniProt P10721); test: SelectScreen Kinase Profiling: KIT; assay type: biochemical; details: tested at 300-350 nM
Source text: as §1

MAP2K1 (MEK1) = MAP2K1 (MEK1) (Homo sapiens (Human), UniProt Q02750); test: SelectScreen Kinase Profiling: MAP2K1 (MEK1); assay type: biochemical; details: tested at 300-350 nM
Source text: as §1

MAP4K4 (HGK) = MAP4K4 (HGK) (Homo sapiens (Human), UniProt O95819); test: SelectScreen Kinase Profiling: MAP4K4 (HGK); assay type: biochemical; details: tested at 300-350 nM
Source text: as §1

MAPK1 (ERK2) = MAPK1 (ERK2) (Homo sapiens (Human), UniProt P28482); test: SelectScreen Kinase Profiling: MAPK1 (ERK2); assay type: biochemical; details: tested at 300-350 nM
Source text: as §1

NTRK1 (TRKA) = NTRK1 (TRKA) (Homo sapiens (Human), UniProt P04629); test: SelectScreen Kinase Profiling: NTRK1 (TRKA); assay type: biochemical; details: tested at 300-350 nM
Source text: as §1

PAK4 = PAK4 (Homo sapiens (Human), UniProt O96013); test: SelectScreen Kinase Profiling: PAK4; assay type: biochemical; details: tested at 300-350 nM
Source text: as §1

PLK1 = PLK1 (Homo sapiens (Human), UniProt P53350); test: SelectScreen Kinase Profiling: PLK1; assay type: biochemical; details: tested at 300-350 nM
Source text: as §1

PRKCB1 (PKC beta I) = PRKCB1 (PKC beta I) (Homo sapiens (Human), UniProt P05771); test: SelectScreen Kinase Profiling: PRKCB1 (PKC beta I); assay type: biochemical; details: tested at 300-350 nM
Source text: as §1

RPS6KA3 (RSK2) = RPS6KA3 (RSK2) (Homo sapiens (Human), UniProt P51812); test: SelectScreen Kinase Profiling: RPS6KA3 (RSK2); assay type: biochemical; details: tested at 300-350 nM
Source text: as §1

RPS6KB1 (p70S6K) = RPS6KB1 (p70S6K) (Homo sapiens (Human), UniProt P23443); test: SelectScreen Kinase Profiling: RPS6KB1 (p70S6K); assay type: biochemical; details: tested at 300-350 nM
Source text: as §1

SRC = SRC (Homo sapiens (Human), UniProt P12931); test: SelectScreen Kinase Profiling: SRC; assay type: biochemical; details: tested at 300-350 nM
Source text: as §1

SYK = SYK (Homo sapiens (Human), UniProt P43405); test: SelectScreen Kinase Profiling: SYK; assay type: biochemical; details: tested at 300-350 nM
Source text: as §1

Chain of Wee-1 kinase (P30291 whole entry): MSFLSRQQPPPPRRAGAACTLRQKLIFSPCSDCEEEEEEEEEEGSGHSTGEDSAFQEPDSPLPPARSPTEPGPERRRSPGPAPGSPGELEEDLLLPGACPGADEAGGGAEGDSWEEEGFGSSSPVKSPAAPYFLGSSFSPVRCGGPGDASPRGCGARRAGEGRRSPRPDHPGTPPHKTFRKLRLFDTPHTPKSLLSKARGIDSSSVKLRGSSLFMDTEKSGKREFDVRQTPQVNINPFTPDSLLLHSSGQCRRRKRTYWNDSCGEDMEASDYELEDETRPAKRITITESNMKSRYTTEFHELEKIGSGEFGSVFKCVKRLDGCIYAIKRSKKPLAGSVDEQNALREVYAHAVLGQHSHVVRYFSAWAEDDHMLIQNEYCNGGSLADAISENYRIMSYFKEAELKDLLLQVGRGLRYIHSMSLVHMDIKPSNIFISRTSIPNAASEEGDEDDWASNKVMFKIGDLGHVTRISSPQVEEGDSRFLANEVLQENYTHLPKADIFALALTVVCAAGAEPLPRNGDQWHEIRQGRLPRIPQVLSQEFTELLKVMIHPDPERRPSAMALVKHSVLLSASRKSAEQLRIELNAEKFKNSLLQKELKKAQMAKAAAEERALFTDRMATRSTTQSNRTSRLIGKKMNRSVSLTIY
Chain of PRKCB1 (PKC beta I) (P05771 whole entry): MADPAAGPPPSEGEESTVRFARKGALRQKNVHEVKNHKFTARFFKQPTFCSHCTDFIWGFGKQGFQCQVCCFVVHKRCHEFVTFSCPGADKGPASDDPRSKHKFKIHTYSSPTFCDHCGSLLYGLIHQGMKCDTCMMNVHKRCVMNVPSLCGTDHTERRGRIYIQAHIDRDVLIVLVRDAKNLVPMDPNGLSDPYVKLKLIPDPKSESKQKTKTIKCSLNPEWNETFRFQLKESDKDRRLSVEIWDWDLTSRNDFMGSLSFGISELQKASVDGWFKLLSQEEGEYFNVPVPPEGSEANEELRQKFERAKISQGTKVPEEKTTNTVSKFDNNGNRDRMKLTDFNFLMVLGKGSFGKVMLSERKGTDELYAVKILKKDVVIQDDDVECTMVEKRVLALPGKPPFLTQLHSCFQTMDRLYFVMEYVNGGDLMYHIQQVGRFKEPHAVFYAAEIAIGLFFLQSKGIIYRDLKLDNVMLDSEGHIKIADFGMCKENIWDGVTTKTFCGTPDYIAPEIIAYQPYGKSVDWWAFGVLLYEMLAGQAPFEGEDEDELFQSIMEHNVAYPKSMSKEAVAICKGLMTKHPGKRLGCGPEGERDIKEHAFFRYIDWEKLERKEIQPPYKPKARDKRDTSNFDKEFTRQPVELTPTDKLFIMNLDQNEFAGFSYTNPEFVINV
Chain of FGFR1 (P11362 22-822): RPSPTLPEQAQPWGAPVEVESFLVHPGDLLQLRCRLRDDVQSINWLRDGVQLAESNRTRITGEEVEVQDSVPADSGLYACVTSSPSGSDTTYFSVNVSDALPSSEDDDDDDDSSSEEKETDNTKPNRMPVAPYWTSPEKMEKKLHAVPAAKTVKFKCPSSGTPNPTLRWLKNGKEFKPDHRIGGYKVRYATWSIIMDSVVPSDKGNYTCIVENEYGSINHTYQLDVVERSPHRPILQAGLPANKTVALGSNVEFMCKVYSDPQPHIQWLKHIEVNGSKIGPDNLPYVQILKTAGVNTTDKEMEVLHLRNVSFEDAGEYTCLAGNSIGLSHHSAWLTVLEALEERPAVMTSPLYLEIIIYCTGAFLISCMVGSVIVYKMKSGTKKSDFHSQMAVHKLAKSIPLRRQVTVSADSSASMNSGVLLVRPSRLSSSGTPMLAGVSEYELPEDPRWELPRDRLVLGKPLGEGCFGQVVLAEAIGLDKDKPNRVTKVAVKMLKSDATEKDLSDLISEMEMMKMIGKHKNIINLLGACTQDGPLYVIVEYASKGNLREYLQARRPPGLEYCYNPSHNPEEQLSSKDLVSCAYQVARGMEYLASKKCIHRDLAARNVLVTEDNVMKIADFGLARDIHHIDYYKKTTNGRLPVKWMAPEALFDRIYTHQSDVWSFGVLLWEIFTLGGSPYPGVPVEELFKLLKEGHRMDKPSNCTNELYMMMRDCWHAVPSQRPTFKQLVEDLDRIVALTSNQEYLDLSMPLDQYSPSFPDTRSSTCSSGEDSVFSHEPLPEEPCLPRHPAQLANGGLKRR
Chain of AURKA (Aurora A) (O14965 whole entry): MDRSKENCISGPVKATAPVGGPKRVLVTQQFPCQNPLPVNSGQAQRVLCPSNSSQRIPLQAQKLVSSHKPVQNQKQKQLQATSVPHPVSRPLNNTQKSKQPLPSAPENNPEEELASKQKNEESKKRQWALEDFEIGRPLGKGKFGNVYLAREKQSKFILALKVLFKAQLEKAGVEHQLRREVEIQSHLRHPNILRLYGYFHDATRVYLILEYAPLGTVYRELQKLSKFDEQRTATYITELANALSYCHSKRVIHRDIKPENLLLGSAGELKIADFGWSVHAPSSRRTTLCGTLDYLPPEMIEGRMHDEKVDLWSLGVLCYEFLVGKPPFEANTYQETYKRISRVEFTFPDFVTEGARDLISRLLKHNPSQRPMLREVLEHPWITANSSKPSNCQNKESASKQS
Chain of MAP4K4 (HGK) (O95819 whole entry): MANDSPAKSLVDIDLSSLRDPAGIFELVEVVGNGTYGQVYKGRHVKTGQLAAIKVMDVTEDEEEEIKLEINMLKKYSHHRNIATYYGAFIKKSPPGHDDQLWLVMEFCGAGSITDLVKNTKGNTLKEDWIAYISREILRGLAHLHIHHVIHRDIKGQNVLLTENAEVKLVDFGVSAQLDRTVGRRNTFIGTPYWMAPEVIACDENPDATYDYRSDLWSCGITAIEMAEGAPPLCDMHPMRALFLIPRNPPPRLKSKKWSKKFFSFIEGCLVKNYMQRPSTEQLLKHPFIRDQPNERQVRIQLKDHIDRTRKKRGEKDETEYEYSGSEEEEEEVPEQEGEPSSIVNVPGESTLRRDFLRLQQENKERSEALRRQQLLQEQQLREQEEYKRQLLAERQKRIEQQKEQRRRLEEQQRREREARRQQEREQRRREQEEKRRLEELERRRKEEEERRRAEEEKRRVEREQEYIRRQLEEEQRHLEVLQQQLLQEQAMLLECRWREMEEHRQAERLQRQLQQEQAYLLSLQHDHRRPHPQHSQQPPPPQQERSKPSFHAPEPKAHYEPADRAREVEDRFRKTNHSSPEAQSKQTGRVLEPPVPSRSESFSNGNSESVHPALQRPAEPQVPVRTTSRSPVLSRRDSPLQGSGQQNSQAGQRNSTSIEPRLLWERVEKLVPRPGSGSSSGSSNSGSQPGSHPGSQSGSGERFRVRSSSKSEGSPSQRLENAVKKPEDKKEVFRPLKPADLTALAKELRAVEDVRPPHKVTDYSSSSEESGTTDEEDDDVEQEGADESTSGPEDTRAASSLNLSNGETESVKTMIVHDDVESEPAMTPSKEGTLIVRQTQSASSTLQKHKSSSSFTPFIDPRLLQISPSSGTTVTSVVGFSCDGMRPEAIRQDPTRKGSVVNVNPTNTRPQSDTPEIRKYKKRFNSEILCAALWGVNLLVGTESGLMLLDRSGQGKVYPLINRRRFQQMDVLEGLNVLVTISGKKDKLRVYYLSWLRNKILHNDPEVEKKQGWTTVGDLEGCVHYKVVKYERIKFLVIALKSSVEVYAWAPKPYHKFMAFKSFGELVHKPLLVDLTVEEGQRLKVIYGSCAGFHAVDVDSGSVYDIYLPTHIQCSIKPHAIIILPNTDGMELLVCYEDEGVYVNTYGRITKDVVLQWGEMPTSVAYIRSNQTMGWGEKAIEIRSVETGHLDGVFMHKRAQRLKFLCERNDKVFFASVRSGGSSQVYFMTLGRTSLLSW
Chain of CSNK2A1 (CK2 alpha 1) (P68400 whole entry): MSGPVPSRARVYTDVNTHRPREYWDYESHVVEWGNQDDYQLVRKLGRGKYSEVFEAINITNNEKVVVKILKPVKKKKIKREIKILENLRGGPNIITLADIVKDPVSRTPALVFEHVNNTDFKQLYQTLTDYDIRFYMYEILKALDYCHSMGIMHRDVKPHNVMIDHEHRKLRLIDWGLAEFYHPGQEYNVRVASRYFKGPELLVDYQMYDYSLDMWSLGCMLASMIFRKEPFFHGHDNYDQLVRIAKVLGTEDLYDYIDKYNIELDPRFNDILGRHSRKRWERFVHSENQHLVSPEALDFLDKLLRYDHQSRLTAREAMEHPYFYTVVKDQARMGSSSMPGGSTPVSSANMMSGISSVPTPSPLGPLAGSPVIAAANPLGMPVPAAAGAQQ
Chain of MAPK1 (ERK2) (P28482 whole entry): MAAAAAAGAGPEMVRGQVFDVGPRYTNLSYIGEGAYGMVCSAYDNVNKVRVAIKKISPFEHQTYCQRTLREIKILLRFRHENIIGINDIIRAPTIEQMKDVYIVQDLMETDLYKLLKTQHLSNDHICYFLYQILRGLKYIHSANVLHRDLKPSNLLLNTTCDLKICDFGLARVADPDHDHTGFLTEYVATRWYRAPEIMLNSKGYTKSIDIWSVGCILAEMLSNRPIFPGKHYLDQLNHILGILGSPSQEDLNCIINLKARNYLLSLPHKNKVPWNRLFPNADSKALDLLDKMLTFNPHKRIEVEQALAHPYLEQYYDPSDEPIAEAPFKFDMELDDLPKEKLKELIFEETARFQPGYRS
Chain of MAP2K1 (MEK1) (Q02750 whole entry): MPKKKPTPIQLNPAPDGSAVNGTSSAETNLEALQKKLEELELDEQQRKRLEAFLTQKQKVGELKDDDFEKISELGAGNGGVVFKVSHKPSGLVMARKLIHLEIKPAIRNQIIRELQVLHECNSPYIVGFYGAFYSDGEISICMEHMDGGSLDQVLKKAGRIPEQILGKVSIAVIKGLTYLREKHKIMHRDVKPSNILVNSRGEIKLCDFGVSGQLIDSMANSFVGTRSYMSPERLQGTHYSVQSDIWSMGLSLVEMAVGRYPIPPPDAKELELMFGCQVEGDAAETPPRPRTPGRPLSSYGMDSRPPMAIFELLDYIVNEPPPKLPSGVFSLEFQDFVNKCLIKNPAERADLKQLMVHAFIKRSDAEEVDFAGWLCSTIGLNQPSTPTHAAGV

C=CCn1c(=O)c2cnc(Nc3ccc(N4CCN(C)CC4)cc3)nc2n1-c1cccc(N=S(C)(C)=O)n1 [Example 5, 1-(6-{[Dimethyl(oxo)-λ^6-sulfanylidene]amino}pyridine-2-yl)-6-{[4-(4-methylpiperazin-1-yl)phenyl]amino}-2-(prop-2-en-1-yl)-1H,2H,3H-pyrazolo[3,4-d]pyrimidin-3-one]
IC50 (Wee-1 kinase; Table 5, data obtained as described in the experimental section of the current invention, read-out: Wee-1/nM): 1.2 nM | IC50 (Wee-1 kinase; Table 7, data obtained as described in the experimental section of the current invention, read-out: Wee-1/nM): 1.2 nM | IC50 (Wee-1 kinase; read-out: Wee1 IC50): 1.2 nM | EC50 (A427 cells): 29 nM | selectivity against a panel of 50 kinases (panel of 50 kinases): greater selectivity | inhibition of ABL1 (ABL1): − (inhibition under 50% (tested at 300-350 nM)) | inhibition of AMPK A1/B1/G1 (AMPK A1/B1/G1): − (inhibition under 50% (tested at 300-350 nM)) | inhibition of AURKA (Aurora A) (AURKA (Aurora A)): − (inhibition under 50% (tested at 300-350 nM)) | inhibition of CHEK1 (CHK1) (CHEK1 (CHK1)): − (inhibition under 50% (tested at 300-350 nM)) | inhibition of CSNK2A1 (CK2 alpha 1) (CSNK2A1 (CK2 alpha 1)): − (inhibition under 50% (tested at 300-350 nM)) | inhibition of EGFR (ErbB1) (EGFR (ErbB1)): − (inhibition under 50% (tested at 300-350 nM)) | inhibition of EPHA2 (EPHA2): − (inhibition under 50% (tested at 300-350 nM)) | inhibition of FGFR1 (FGFR1): − (inhibition under 50% (tested at 300-350 nM)) | inhibition of GSK3B (GSK3 beta) (GSK3B (GSK3 beta)): − (inhibition under 50% (tested at 300-350 nM)) | inhibition of IRAK4 (IRAK4): − (inhibition under 50% (tested at 300-350 nM)) | inhibition of KIT (KIT): − (inhibition under 50% (tested at 300-350 nM)) | inhibition of MAP2K1 (MEK1) (MAP2K1 (MEK1)): − (inhibition under 50% (tested at 300-350 nM)) | inhibition of MAP4K4 (HGK) (MAP4K4 (HGK)): − (inhibition under 50% (tested at 300-350 nM)) | inhibition of MAPK1 (ERK2) (MAPK1 (ERK2)): − (inhibition under 50% (tested at 300-350 nM)) | inhibition of NTRK1 (TRKA) (NTRK1 (TRKA)): − (inhibition under 50% (tested at 300-350 nM)) | inhibition of PAK4 (PAK4): − (inhibition under 50% (tested at 300-350 nM)) | inhibition of PLK1 (PLK1): − (inhibition under 50% (tested at 300-350 nM)) | inhibition of PRKCB1 (PKC beta I) (PRKCB1 (PKC beta I)): − (inhibition under 50% (tested at 300-350 nM)) | inhibition of RPS6KA3 (RSK2) (RPS6KA3 (RSK2)): − (inhibition under 50% (tested at 300-350 nM)) | inhibition of RPS6KB1 (p70S6K) (RPS6KB1 (p70S6K)): − (inhibition under 50% (tested at 300-350 nM)) | inhibition of SRC (SRC): − (inhibition under 50% (tested at 300-350 nM)) | inhibition of SYK (SYK): − (inhibition under 50% (tested at 300-350 nM))
